Experimental data: PubChem BioAssay AID1259407 (Chemical Carcinogenesis Research Information System (CCRIS), 2018)
The source made the active and inactive calls. How the calls were made is not given here.

Test system: CCRIS mutagenicity, Ames/micronucleus/aberration tests
Assay: CCRIS mutagenicity studies

CC(C)=O
mutagenic call (End Point: IN VITRO CHROMOSOMAL ABERRATIONS, Test System: CHO-LB CELLS, Metabolic Activation: NONE): inactive; negative
mutagenic call (End Point: IN VITRO CHROMOSOMAL ABERRATIONS, Test System: CHO-LB CELLS, Metabolic Activation: RAT, LIVER, S-9, AROCLOR 1254): inactive; negative
mutagenic call (Test System: AMES SALMONELLA TYPHIMURIUM, Strain/Indicator: TA97, Metabolic Activation: HAMSTER, LIVER, S-9, AROCLOR 1254 (10 OR 30%), Method: PREINCUBATION): inactive; negative
mutagenic call (Test System: AMES SALMONELLA TYPHIMURIUM, Strain/Indicator: TA97, Metabolic Activation: NONE, Method: PREINCUBATION): inactive; negative
mutagenic call (Test System: AMES SALMONELLA TYPHIMURIUM, Strain/Indicator: TA97, Metabolic Activation: RAT, LIVER, S-9, AROCLOR 1254 (10 OR 30%), Method: PREINCUBATION): inactive; negative
mutagenic call (Test System: AMES SALMONELLA TYPHIMURIUM, Strain/Indicator: TA97, Metabolic Activation: RAT, LIVER, S-9, AROCLOR 1254, Method: PREINCUBATION): inactive; negative
mutagenic call (Test System: AMES SALMONELLA TYPHIMURIUM, Strain/Indicator: TA98, Metabolic Activation: HAMSTER, LIVER, S-9, AROCLOR 1254 (10 OR 30%), Method: PREINCUBATION): inactive; negative
mutagenic call (Test System: AMES SALMONELLA TYPHIMURIUM, Strain/Indicator: TA98, Metabolic Activation: NONE, Method: PREINCUBATION): inactive; negative
mutagenic call (Test System: AMES SALMONELLA TYPHIMURIUM, Strain/Indicator: TA98, Metabolic Activation: RAT, LIVER, S-9, AROCLOR 1254 (10 OR 30%), Method: PREINCUBATION): inactive; negative
mutagenic call (Test System: AMES SALMONELLA TYPHIMURIUM, Strain/Indicator: TA100, Metabolic Activation: HAMSTER, LIVER, S-9, AROCLOR 1254 (10 OR 30%), Method: PREINCUBATION): inactive; negative
mutagenic call (Test System: AMES SALMONELLA TYPHIMURIUM, Strain/Indicator: TA100, Metabolic Activation: NONE, Method: PREINCUBATION): inactive; negative
mutagenic call (Test System: AMES SALMONELLA TYPHIMURIUM, Strain/Indicator: TA100, Metabolic Activation: RAT, LIVER, S-9, AROCLOR 1254 (10 OR 30%), Method: PREINCUBATION): inactive; negative
mutagenic call (Test System: AMES SALMONELLA TYPHIMURIUM, Strain/Indicator: TA102, Metabolic Activation: NONE, Method: PREINCUBATION): inactive; negative
mutagenic call (Test System: AMES SALMONELLA TYPHIMURIUM, Strain/Indicator: TA102, Metabolic Activation: RAT, LIVER, S-9, AROCLOR 1254, Method: PREINCUBATION): inactive; negative
mutagenic call (Test System: AMES SALMONELLA TYPHIMURIUM, Strain/Indicator: TA1535, Metabolic Activation: HAMSTER, LIVER, S-9, AROCLOR 1254 (10 OR 30%), Method: PREINCUBATION): inactive; negative
mutagenic call (Test System: AMES SALMONELLA TYPHIMURIUM, Strain/Indicator: TA1535, Metabolic Activation: NONE, Method: PREINCUBATION): inactive; negative
mutagenic call (Test System: AMES SALMONELLA TYPHIMURIUM, Strain/Indicator: TA1535, Metabolic Activation: RAT, LIVER, S-9, AROCLOR 1254 (10 OR 30%), Method: PREINCUBATION): inactive; negative
mutagenic call (Test System: AMES SALMONELLA TYPHIMURIUM, Strain/Indicator: TA1537, Metabolic Activation: HAMSTER, LIVER, S-9, AROCLOR 1254 (30%), Method: PREINCUBATION): inactive; negative
mutagenic call (Test System: AMES SALMONELLA TYPHIMURIUM, Strain/Indicator: TA1537, Metabolic Activation: NONE, Method: PREINCUBATION): inactive; negative
mutagenic call (Test System: AMES SALMONELLA TYPHIMURIUM, Strain/Indicator: TA1537, Metabolic Activation: RAT, LIVER, S-9, AROCLOR 1254 (30%), Method: PREINCUBATION): inactive; negative

CN(C)c1nc2c3cccnc3ccc2n1C
mutagenic call (Test System: AMES SALMONELLA TYPHIMURIUM, Strain/Indicator: TA98, Metabolic Activation: RAT, LIVER, S-9, AROCLOR 1254, Method: PREINCUBATION): active; positive
mutagenic call (Test System: AMES SALMONELLA TYPHIMURIUM, Strain/Indicator: TA100, Metabolic Activation: RAT, LIVER, S-9, AROCLOR 1254, Method: PREINCUBATION): active; positive

C=CCBr
mutagenic call (End Point: IN VITRO CHROMOSOMAL ABERRATIONS, Test System: CHL CELLS, Metabolic Activation: NONE): active; positive (structural changes)
mutagenic call (End Point: IN VITRO CHROMOSOMAL ABERRATIONS, Test System: CHL CELLS, Metabolic Activation: RAT, LIVER, S-9, SODIUM PHENOBARBITAL AND 5,6-BENZOFLAVONE): inactive; negative; authors report equivocal results for structural changes at 0.06 mg/ml
mutagenic call (End Point: In vivo micronucleus, Species: Mouse, Strain/Sex: C57BL/6/Male, Route: Oral): inactive; negative
mutagenic call (End Point: In vivo micronucleus, Test System: Peripheral blood normochromatic erythrocytes, Species: Mouse, Strain/Sex: C57BL/6/Female, Route: Oral): inactive; negative
mutagenic call (End Point: In vivo micronucleus, Test System: Peripheral blood normochromatic erythrocytes, Species: Mouse, Strain/Sex: FVB/N/Female, Route: Oral): inactive; negative
mutagenic call (End Point: In vivo micronucleus, Test System: Peripheral blood normochromatic erythrocytes, Species: Mouse, Strain/Sex: FVB/N/Male, Route: Oral): inactive; negative
mutagenic call (End Point: In vivo micronucleus, Test System: Peripheral blood normochromatic erythrocytes, Species: Mouse, Strain/Sex: P53 Haploinsufficient/Female, Route: Oral): inactive; negative
mutagenic call (End Point: In vivo micronucleus, Test System: Peripheral blood normochromatic erythrocytes, Species: Mouse, Strain/Sex: P53 Haploinsufficient/Male, Route: Oral): inactive; negative
mutagenic call (End Point: In vivo micronucleus, Test System: Peripheral blood normochromatic erythrocytes, Species: Mouse, Strain/Sex: Tg.AC Hemizygous/Female, Route: Oral): inactive; negative
mutagenic call (End Point: In vivo micronucleus, Test System: Peripheral blood normochromatic erythrocytes, Species: Mouse, Strain/Sex: Tg.AC Hemizygous/Male, Route: Oral): inactive; negative
mutagenic call (Test System: Ames Salmonella typhimurium, Strain/Indicator: TA98, Metabolic Activation: Hamster, Liver, S-9, Aroclor 1254 (30%), Method: Standard plate): inactive; negative
mutagenic call (Test System: Ames Salmonella typhimurium, Strain/Indicator: TA98, Metabolic Activation: None, Method: Standard plate): inactive; negative
mutagenic call (Test System: Ames Salmonella typhimurium, Strain/Indicator: TA98, Metabolic Activation: Rat, Liver, S-9, Aroclor 1254 (30%), Method: Standard plate): inactive; negative
mutagenic call (Test System: Ames Salmonella typhimurium, Strain/Indicator: TA100, Metabolic Activation: Hamster, Liver, S-9, Aroclor 1254 (30%), Method: Standard plate): active; positive (weak response)
mutagenic call (Test System: Ames Salmonella typhimurium, Strain/Indicator: TA100, Metabolic Activation: None, Method: Standard plate): active; positive
mutagenic call (Test System: Ames Salmonella typhimurium, Strain/Indicator: TA100, Metabolic Activation: Rat, Liver, S-9, Aroclor 1254 (30%), Method: Standard plate): active; positive
